# According to patent US12459922B2 (Gilead Sciences, Inc., priority 2022, dated 2025):
# Tested on: endogenous cellular STAT1 (phosphorylated at Tyr701) in NCI-H1373 cells
# Test: Phospho-STAT1 (Tyr701) LANCE Ultra TR-FRET Detection Assay
# Type: cell-based
# Settings: Homo sapiens, NCI-H1373, 48 h, phospho-STAT1 (Tyr701) induction, read-out: NH1373 pSTAT1 EC50
row,Compound,EC50 [nM]
1,"O=c1[nH]ncc(N[C@H](CCCn2ccc3cc(-c4ncc(C(F)(F)F)s4)c(F)cc3c2=O)COC(F)F)c1C(F)(F)F [Example 396, (R)-2-(5-(difluoromethoxy)-4-((6-oxo-5-(trifluoromethyl)-1,6-dihydropyridazin-4-yl)amino)pentyl)-7-fluoro-6-(5-(trifluoromethyl)thiazol-2-yl)isoquinolin-1(2H)-one]",48.8
2,"Nc1nc(-c2cc3ccn(CCC[C@H](COC(F)F)Nc4cn[nH]c(=O)c4C(F)(F)F)c(=O)c3c(F)c2F)ncc1OC(F)F [Example 397, (R)-6-(4-amino-5-(difluoromethoxy)pyrimidin-2-yl)-2-(5-(difluoromethoxy)-4-((6-oxo-5-(trifluoromethyl)-1,6-dihydropyridazin-4-yl)amino)pentyl)-7,8-difluoroisoquinolin-1(2H)-one]",10.1
3,"O=c1[nH]ncc(N[C@H](CCCn2cnc3cc(C4=CCCCO4)c(F)cc3c2=O)COC(F)F)c1C(F)(F)F [Example 398, (R)-3-(5-(difluoromethoxy)-4-((6-oxo-5-(trifluoromethyl)-1,6-dihydropyridazin-4-yl)amino)pentyl)-7-(3,4-dihydro-2H-pyran-6-yl)-6-fluoroquinazolin-4(3H)-one]",424
4,"Nc1cc(-c2cc3ccn(CCC[C@H](COC(F)F)Nc4cn[nH]c(=O)c4C(F)(F)F)c(=O)c3cc2F)cnc1C(F)(F)F [Example 400, (R)-6-(5-amino-6-(trifluoromethyl)pyridin-3-yl)-2-(5-(difluoromethoxy)-4-((6-oxo-5-(trifluoromethyl)-1,6-dihydropyridazin-4-yl)amino)pentyl)-7-fluoroisoquinolin-1(2H)-one]",56.8
5,"Nc1nc(-c2ccc3c(=O)n(CCC[C@H](COC(F)F)Nc4cn[nH]c(=O)c4C(F)(F)F)ccc3n2)ccc1C(F)(F)F [Example 405, (R)-2-(6-amino-5-(trifluoromethyl)pyridin-2-yl)-6-(5-(difluoromethoxy)-4-((6-oxo-5-(trifluoromethyl)-1,6-dihydropyridazin-4-yl)amino)pentyl)-1,6-naphthyridin-5(6H)-one]",9.67
6,"N#Cc1ccc(-c2cc3ccn(CCC[C@H](COC(F)F)Nc4cn[nH]c(=O)c4C(F)(F)F)c(=O)c3cc2F)nc1N [Example 411, (R)-2-amino-6-(2-(5-(difluoromethoxy)-4-((6-oxo-5-(trifluoromethyl)-1,6-dihydropyridazin-4-yl)amino)pentyl)-7-fluoro-1-oxo-1,2-dihydroisoquinolin-6-yl)nicotinonitrile]",5.28
7,"Cc1ccc(-c2cc3ccn(CCC[C@H](COC(F)F)Nc4cn[nH]c(=O)c4C(F)(F)F)c(=O)c3cc2F)nc1N [Example 412, (R)-6-(6-amino-5-methylpyridin-2-yl)-2-(5-(difluoromethoxy)-4-((6-oxo-5-(trifluoromethyl)-1,6-dihydropyridazin-4-yl)amino)pentyl)-7-fluoroisoquinolin-1(2H)-one]",17.4
8,"Nc1nc(-c2cc3ncn(CCC[C@H](COC(F)F)Nc4cn[nH]c(=O)c4C(F)(F)F)c(=O)c3cc2F)nc(C2CC2)c1Cl [Example 414, (R)-7-(4-amino-5-chloro-6-cyclopropylpyrimidin-2-yl)-3-(5-(difluoromethoxy)-4-((6-oxo-5-(trifluoromethyl)-1,6-dihydropyridazin-4-yl)amino)pentyl)-6-fluoroquinazolin-4(3H)-one]",10.9
9,"Nc1nc(-c2cc3ccn(CCC[C@H](COC(F)F)Nc4cn[nH]c(=O)c4C(F)(F)F)c(=O)c3cc2F)cnc1C(F)(F)F [Example 416, (R)-6-(6-amino-5-(trifluoromethyl)pyrazin-2-yl)-2-(5-(difluoromethoxy)-4-((6-oxo-5-(trifluoromethyl)-1,6-dihydropyridazin-4-yl)amino)pentyl)-7-fluoroisoquinolin-1(2H)-one]",6.78
10,"Nc1nc(-c2cc3ncn(CCC[C@H](COC(F)F)Nc4cn[nH]c(=O)c4C(F)(F)F)c(=O)c3cc2F)cnc1C(F)(F)F [Example 419, (R)-7-(6-amino-5-(trifluoromethyl)pyrazin-2-yl)-3-(5-(difluoromethoxy)-4-((6-oxo-5-(trifluoromethyl)-1,6-dihydropyridazin-4-yl)amino)pentyl)-6-fluoroquinazolin-4(3H)-one]",14.2

# Stronger by EC50, values ahead:
row,EC50 [nM],Compound
1,2.98,"O=c1[nH]ncc(N[C@H](CCCn2ccc3cc(-c4ccc(C(F)(F)F)cn4)c(F)cc3c2=O)COC(F)F)c1C(F)(F)F [Example 399, (R)-2-(5-(difluoromethoxy)-4-((6-oxo-5-(trifluoromethyl)-1,6-dihydropyridazin-4-yl)amino)pentyl)-7-fluoro-6-(5-(trifluoromethyl)pyridin-2-yl)isoquinolin-1(2H)-one]"
2,1.63,"O=c1[nH]ncc(N[C@H](CCCn2ccc3cc(-c4ccc(C(F)F)cn4)c(F)cc3c2=O)COC(F)F)c1C(F)(F)F [Example 401, (R)-2-(5-(difluoromethoxy)-4-((6-oxo-5-(trifluoromethyl)-1,6-dihydropyridazin-4-yl)amino)pentyl)-6-(5-(difluoromethyl)pyridin-2-yl)-7-fluoroisoquinolin-1(2H)-one]"
3,3.13,"O=c1[nH]ncc(N[C@H](CCCn2cnc3cc(-c4ccc(C(F)F)cn4)c(F)cc3c2=O)COC(F)F)c1C(F)(F)F [Example 402, (R)-3-(5-(difluoromethoxy)-4-((6-oxo-5-(trifluoromethyl)-1,6-dihydropyridazin-4-yl)amino)pentyl)-7-(5-(difluoromethyl)pyridin-2-yl)-6-fluoroquinazolin-4(3H)-one]"
4,3.65,"O=c1[nH]ncc(N[C@H](CCCn2cnc3cc(-c4ccc(C(F)(F)F)cn4)c(F)cc3c2=O)COC(F)F)c1C(F)(F)F [Example 403, (R)-3-(5-(difluoromethoxy)-4-((6-oxo-5-(trifluoromethyl)-1,6-dihydropyridazin-4-yl)amino)pentyl)-6-fluoro-7-(5-(trifluoromethyl)pyridin-2-yl)quinazolin-4(3H)-one]"
5,1.57,"O=c1[nH]ncc(N[C@H](CCCn2cnc3nc(-c4ccc(C(F)(F)F)cn4)ccc3c2=O)COC(F)F)c1C(F)(F)F [Example 404, (R)-3-(5-(difluoromethoxy)-4-((6-oxo-5-(trifluoromethyl)-1,6-dihydropyridazin-4-yl)amino)pentyl)-7-(5-(trifluoromethyl)pyridin-2-yl)pyrido[2,3-d]pyrimidin-4(3H)-one]"
6,1.72,"O=c1[nH]ncc(N[C@H](CCCn2ccc3cc(-c4ccc(C(F)F)cn4)c(F)c(F)c3c2=O)COC(F)F)c1C(F)(F)F [Example 406, (R)-2-(5-(difluoromethoxy)-4-((6-oxo-5-(trifluoromethyl)-1,6-dihydropyridazin-4-yl)amino)pentyl)-6-(5-(difluoromethyl)pyridin-2-yl)-7,8-difluoroisoquinolin-1(2H)-one]"
7,1.99,"O=c1[nH]ncc(N[C@H](CCCn2ccc3cc(-c4ccc(C(F)(F)F)cn4)c(F)c(F)c3c2=O)COC(F)F)c1C(F)(F)F [Example 407, (R)-2-(5-(difluoromethoxy)-4-((6-oxo-5-(trifluoromethyl)-1,6-dihydropyridazin-4-yl)amino)pentyl)-7,8-difluoro-6-(5-(trifluoromethyl)pyridin-2-yl)isoquinolin-1(2H)-one]"
8,4.11,"O=c1[nH]ncc(N[C@H](CCCn2ccc3nc(-c4ccc(C(F)F)cn4)ccc3c2=O)COC(F)F)c1C(F)(F)F [Example 408, (R)-6-(5-(difluoromethoxy)-4-((6-oxo-5-(trifluoromethyl)-1,6-dihydropyridazin-4-yl)amino)pentyl)-2-(5-(difluoromethyl)pyridin-2-yl)-1,6-naphthyridin-5(6H)-one]"
9,4.49,"Nc1nc(-c2cc3ccn(CCC[C@H](COC(F)F)Nc4cn[nH]c(=O)c4C(F)(F)F)c(=O)c3cc2F)ccc1F [Example 409, (R)-6-(6-amino-5-fluoropyridin-2-yl)-2-(5-(difluoromethoxy)-4-((6-oxo-5-(trifluoromethyl)-1,6-dihydropyridazin-4-yl)amino)pentyl)-7-fluoroisoquinolin-1(2H)-one]"
10,0.99,"Nc1nc(-c2cc3ccn(CCC[C@H](COC(F)F)Nc4cn[nH]c(=O)c4C(F)(F)F)c(=O)c3cc2F)ccc1Cl [Example 410, (R)-6-(6-amino-5-chloropyridin-2-yl)-2-(5-(difluoromethoxy)-4-((6-oxo-5-(trifluoromethyl)-1,6-dihydropyridazin-4-yl)amino)pentyl)-7-fluoroisoquinolin-1(2H)-one]"
11,4.59,"O=c1[nH]ncc(N[C@H](CCCn2cnc3cc(-c4cnc(C5CC5)cn4)c(F)cc3c2=O)COC(F)F)c1C(F)(F)F [Example 413, (R)-7-(5-cyclopropylpyrazin-2-yl)-3-(5-(difluoromethoxy)-4-((6-oxo-5-(trifluoromethyl)-1,6-dihydropyridazin-4-yl)amino)pentyl)-6-fluoroquinazolin-4(3H)-one]"
12,2.49,"COc1ncc(-c2cc3ccn(CCC[C@H](COC(F)F)Nc4cn[nH]c(=O)c4C(F)(F)F)c(=O)c3cc2F)nc1N [Example 415, (R)-6-(6-amino-5-methoxypyrazin-2-yl)-2-(5-(difluoromethoxy)-4-((6-oxo-5-(trifluoromethyl)-1,6-dihydropyridazin-4-yl)amino)pentyl)-7-fluoroisoquinolin-1(2H)-one]"
13,2.28,"O=c1[nH]ncc(N[C@H](CCCn2ccc3cc(-c4cnc(C(F)(F)F)cn4)c(F)cc3c2=O)COC(F)F)c1C(F)(F)F [Example 417, (R)-2-(5-(difluoromethoxy)-4-((6-oxo-5-(trifluoromethyl)-1,6-dihydropyridazin-4-yl)amino)pentyl)-7-fluoro-6-(5-(trifluoromethyl)pyrazin-2-yl)isoquinolin-1(2H)-one]"
14,4.58,"Nc1nc(-c2cc3ccn(CCC[C@H](COC(F)F)Nc4cn[nH]c(=O)c4C(F)(F)F)c(=O)c3c(F)c2F)cnc1C(F)(F)F [Example 418, (R)-6-(6-amino-5-(trifluoromethyl)pyrazin-2-yl)-2-(5-(difluoromethoxy)-4-((6-oxo-5-(trifluoromethyl)-1,6-dihydropyridazin-4-yl)amino)pentyl)-7,8-difluoroisoquinolin-1(2H)-one]"
